From US20240368125A1, “NOVEL PYRAZINYL-TRIAZOLE COMPOUNDS AS PESTICIDES” (Bayer Aktiengesellschaft, priority 2021, published 2024)

Assays:
Assay type in all cases: in vivo
[1] = test system: brown planthopper (Nilaparvata lugens); assay: Nilaparvata lugens spray test; conditions: for mortality: 500 g/ha, rice plants, after 4 days; for mortality at 500 g/ha: Nilaparvata lugens, in Oryza sativa, 96 h
Method: Nilaparvata lugens—Spray Test
(§1) Solvent: 78.0 parts by weight of acetone • • 1.5 parts by weight of dimethylformamide
(§2) Emulsifier: alkylarylpolyglycol ether
(§3) To produce a suitable preparation of active compound, 1 part by weight of active compound is mixed with the stated amount of solvents and is diluted with water, containing an emulsifier concentration of 1000 ppm, to the desired concentration. Further test concentrations are prepared by dilution with emulsifier containing water.
Rice plants (Oryza sativa) are sprayed with a preparation of the active ingredient of the desired concentration and the plants are infested with the brown planthopper (Nilaparvata lugens).
After 4 days mortality in % is determined. 100% means all planthoppers have been killed and 0% means none of the planthoppers have been killed.

[2] = test system: larvae of the southern green stink bug (Nezara viridula); assay: Nezara viridula spray test; conditions: for mortality: 500 g/ha, barley plants, after 4 days; for mortality at 500 g/ha: Nezara viridula, in Hordeum vulgare, 96 h
Method: Nezara viridula—Spray Test
as §1, §2
as §3, with “solvent,” for “solvents”, “and the concentrate” for “and”
Barley plants (Hordeum vulgare) are sprayed with a test solution containing the desired concentration of the active ingredient and are infested with larvae of the southern green stink bug (Nezara viridula).
After 4 days mortality in % is determined. 100% means all the stink bugs have been killed; 0% means none of the stink bugs have been killed.

[3] = test system: larvae of the banded cucumber beetle (Diabrotica balteata); assay: Diabrotica balteata spray test; conditions: 100 g/ha (=32 μg/well), wheat seeds, after 7 days; for pest or weed control at 32 µg/disc, 100 g/ha: Diabrotica balteata, 168 h, read-out: efficacy (seedlings grown)
Method: Diabrotica balteata—Spray Test
as §1, §2
as §3, with “solvent,” for “solvents”, “and the concentrate” for “and”
Soaked wheat seeds (Triticum aestivum) are placed in a multiple well plate filled with agar and some water and are incubated for 1 day to germinate (5 seeds per well). The germinated wheat seeds are sprayed with a test solution containing the desired concentration of the active ingredient. Afterwards each unit is infected with 10-20 larvae of the banded cucumber beetle (Diabrotica balteata).
After 7 days efficacy in % is determined. 100% means all the seedlings have grown up like in the untreated, uninfected control; 0% means none of the seedlings have grown.

[4] = test system: Rhipicephalus (Boophilus) microplus larvae (strain Parkhurst, resistant against synthetic pyrethroids); assay: Rhipicephalus (Boophilus) microplus in-vitro contact test, larval cattle tick; conditions: 1 μg/cm^2 (=100 g/ha), after 48 hours; for pest or weed control at 1 µg/cm2: Rhipicephalus microplus, read-out: efficacy (larvae dead or moribund)
Method: Rhipicephalus (Boophilus) Microplus—In-Vitro Contact Tests Larval Cattle Tick (Strain Parkhurst, Resistant Against Synthetic Pyrethroids
(§4) 9 mg compound is solved in 1 mL acetone and diluted with acetone to the desired concentration. 250 μL of the test solution is filled in 25 mL glass test tubes and homogeneously distributed on the inner walls by rotation and tilting on a shaking device (2 h at 30 rpm). With a compound concentration of 900 ppm, an inner surface of 44.7 cm^2 and a homogeneous distribution, a dose of 5 μg/cm^2 is achieved.
After the solvent has evaporated, each test tube is filled with 20-50 cattle tick larvae (Rhipicephalus microplus), closed with a perforated lid and incubated in a horizontal position at 85% relative humidity and 27° C. in an incubator. After 48 hours efficacy is determined. The larvae are patted on the ground of the tubes and negative geotactic behavior is recorded.

[5] = test system: adult cat fleas (Ctenocephalides felis); assay: Ctenocephalides felis in-vitro contact test, adult cat flea; conditions: Ctenocephalides felis; 1 μg/cm^2 (=100 g/ha), after 48 hours; read-out: efficacy (fleas dead or moribund)
Method: Ctenocephalides Felis—In-Vitro Contact Tests Adult Cat Flea
as §4
(§5) After the solvent has evaporated, each test tube is filled with 5-10 adult cat fleas (Ctenocephalides felis), closed with a perforated lid and incubated in a lying position at room temperature and relative humidity. After 48 hours efficacy is determined. The fleas are patted on the ground of the tubes and are incubated on a heating plate at 45-50° C. for at most 5 minutes. Immotile or uncoordinated moving fleas, which are not able to escape the heat by climbing upwards, are marked as dead or moribund.
An efficacy of 100% means all fleas are dead or moribund; 0% means no fleas are dead or moribund.

[6] = test system: fall armyworm larvae (Spodoptera frugiperda); assay: Spodoptera frugiperda spray test (SPODFR); conditions: 168 h; for mortality at 100 g/ha: in Zea mays
Method: Spodoptera frugiperda—Spray Test
(§6) Solvent: 78.0 parts by weight acetone • 1.5 parts by weight dimethylformamide
as §2, §3
Maize (Zea mays) leaf sections are sprayed with a preparation of the active ingredient of the desired concentration. Once dry, the leaf sections are infested with fall armyworm larvae (Spodoptera frugiperda).
After 7 days mortality in % is determined. 100% means all caterpillars have been killed and 0% means none of the caterpillars have been killed.
Spodoptera frugiperda—Spray Test (SPODFR
After the specified period of time, mortality in % is determined. 100% means all caterpillars have been killed and 0% means none of the caterpillars have been killed.

[7] = test system: adult brown dog ticks (Rhipicephalus sanguineus); assay: Rhipicephalus sanguineus in-vitro contact test, adult brown dog ticks; conditions: Rhipicephalus sanguineus; 1 μg/cm^2 (=100 g/ha), after 48 hours; read-out: efficacy (ticks dead or moribund)
Method: Rhipicephalus sanguineus—In-Vitro Contact Tests with Adult Brown Dog Ticks
as §4
as §5, with “brown dog ticks (Rhipicephalus sanguineus),” for “cat fleas (Ctenocephalides felis),”, “ticks” for “fleas”, “ticks,” for “fleas,”
An efficacy of 100% means all ticks are dead or moribund; 0% means no ticks are dead or moribund.

[8] = test system: green peach aphid (Myzus persicae); assay: Myzus persicae spray test (MYZUPE); conditions: 120 h; for mortality at 100 g/ha: in Brassica rapa, foliar; for Emax at 4 g/ha / Emax at 20 g/ha / Emax at 100 g/ha: MYZUPE, 5 dat, read-out: % Efficacy; for Emax at 4 g/ha: 4 g ai/ha; for Emax at 20 g/ha: 20 g ai/ha; for Emax at 100 g/ha: 100 g ai/ha
Method: Myzus persicae—Spray Test
as §6, §2, §3
Chinese cabbage (Brassica pekinensis) leaf disks infected with all instars of the green peach aphid (Myzus persicae), are sprayed with a preparation of the active ingredient of the desired concentration.
After 5 days mortality in % is determined. 100% means all aphids have been killed and 0% means none of the aphids have been killed.
Myzus persicae—Spray Test (MYZUPE
After the specified period of time, mortality in % is determined. 100% means all aphids have been killed and 0% means none of the aphids have been killed.

Row | SMILES | mortality at 500 g/ha [1] [%] | pest or weed control at 1 µg/cm2 [4] [%] | mortality at 100 g/ha [6] [%] | mortality at 500 g/ha [2] [%] | pest or weed control at 32 µg/disc, 100 g/ha [3] [%] | pest or weed control at 1 µg/cm2, 100 g/ha [7] [%] | mortality at 100 g/ha [8] [%] | further results
1 | C[C@H](NC(=O)c1cc(C(F)F)cc(C(F)F)c1)c1nc(C2CC2)nn1-c1cnc(C(N)=O)cn1 [Example I-071] |  |  |  |  |  |  |  | mortality [1]: 90%; mortality [2]: 90%; efficacy (seedlings grown) [3]: 100%
2 | Cc1nc([C@H](C)NC(=O)c2cc(C(F)(F)F)cc(S(C)(=O)=O)c2)n(-c2cnc(C(N)=O)cn2)n1 [Example I-051] |  |  |  |  |  |  |  | efficacy (larvae dead or moribund) [4]: 100%; mortality [2]: 90%
3 | Cc1nc([C@H](C)NC(=O)c2cc(OC(F)(F)F)cc(OC(F)(F)F)c2)n(-c2cnc(C(=O)N(C)C3CC3)cn2)n1 [Example I-031] | 90 | 100 | 100 |  |  |  |  | pest or weed control at 1 µg/cm2 [5]: 80%
4 | C[C@H](NC(=O)c1cc(C(F)F)nc(C(F)F)c1)c1nc(C2CC2)nn1-c1cnc(C(N)=O)cn1 [Example I-094, 5-[5-[(1S)-1-[[2,6-bis(difluoromethyl)pyridine-4-carbonyl]amino]ethyl]-3-cyclopropyl-1,2,4-triazol-1-yl]pyrazine-2-carboxamide] |  |  | 83 | 100 | 100 |  |  | 
5 | CNC(=O)c1cnc(-n2nc(C)nc2[C@H](C)NC(=O)c2cc(OC(F)(F)F)cc(OC(F)(F)F)c2)cn1 [Example I-034] |  | 100 | 100 | 100 | 80 | 80 |  | 
6 | CNC(=O)c1cnc(-n2nc(C)nc2[C@H](C)NC(=O)c2cc(C(F)(F)F)cc(C(F)(F)F)c2)cn1 [Example I-011] |  | 100 | 100 | 100 |  | 100 | 90 | pest or weed control at 1 µg/cm2 [5]: 100%
7 | Cc1nc([C@H](C)NC(=O)c2cc(C(F)(F)F)cc(C(F)(F)F)c2)n(-c2cnc(C(=O)NC3CC3)cn2)n1 [Example I-014] | 100 | 100 | 100 | 90 |  | 100 | 90 | 
8 | C[C@H](NC(=O)c1cc(OC(F)(F)F)cc(S(C)(=O)=O)c1)c1ncnn1-c1cnc(C(=O)N(C)C)cn1 [Example I-017] | 100 | 100 |  | 100 | 100 | 100 | 100 | Emax at 4 g/ha [8]: 70%; Emax at 20 g/ha [8]: 90%; Emax at 100 g/ha [8]: 100%; pest or weed control at 1 µg/cm2 [5]: 100%
9 | C[C@H](NC(=O)c1cc(F)cc(OC(F)(F)F)c1)c1ncnn1-c1cnc(C(N)=O)cn1 [Example I-068] |  |  |  |  |  |  |  | mortality [2]: 90%
10 | C[C@H](NC(=O)c1cc(OC(F)(F)F)cc(C2(C#N)CC2)c1)c1nc(C2CC2)nn1-c1cnc(C(N)=O)cn1 [Example I-072] |  |  |  |  |  |  |  | mortality [1]: 90%; mortality [2]: 90%; efficacy (seedlings grown) [3]: 100%
11 | Cc1nc([C@H](C)NC(=O)c2cc(C(F)(F)F)cc(C(F)(F)F)c2)n(-c2cnc(C(N)=O)cn2)n1 [Example I-012] | 100 | 100 | 100 | 100 |  | 100 | 100 | 
12 | C=C(CC)c1ccc(C2C=CC=C2[C@H](C)CC(=C)c2cc(C)cc(C(C)(C)C)c2)cc1 (stereo partly shown) [I-038 Known from WO2019206799, reference compound] |  |  |  |  |  |  |  | Emax at 4 g/ha [8]: 0%; Emax at 20 g/ha [8]: 70%; Emax at 100 g/ha [8]: 100%; Emax at 4 g/ha ([6]; SPODFR, 4 g ai/ha, 7 dat, read-out: % Efficacy): 0%; Emax at 20 g/ha ([6]; SPODFR, 20 g ai/ha, 7 dat, read-out: % Efficacy): 100%; Emax at 100 g/ha ([6]; SPODFR, 100 g ai/ha, 7 dat, read-out: % Efficacy): 100%
13 | C[C@H](NC(=O)c1cc(OC(F)(F)F)cc(OC(F)(F)F)c1)c1ncnn1-c1cnc(C(=O)N(C)C2CC2)cn1 [Example I-026] | 100 | 100 | 100 | 100 | 100 | 100 |  | pest or weed control at 1 µg/cm2 [5]: 100%
14 | Cc1nc([C@H](C)NC(=O)c2cc(OC(F)(F)F)cc(C3CC3)c2)n(-c2cnc(C(=O)N(C)C3CC3)cn2)n1 [Example I-032, N-Cyclopropyl-5-(5-{(1S)-1-[3-cyclopropyl-5-(trifluoromethoxy)benzamido]ethyl}-3-methyl-1H-1,2,4-triazol-1-yl)-N-methylpyrazine-2-carboxamide] | 100 | 100 | 100 |  |  | 80 | 90 | pest or weed control at 1 µg/cm2 [5]: 100%
15 | Cc1nc([C@H](C)NC(=O)c2cc(F)cc(OC(F)(F)F)c2)n(-c2cnc(C(N)=O)cn2)n1 [Example I-069] |  |  |  |  |  |  |  | mortality [1]: 90%
16 | Cc1nc([C@H](C)NC(=O)c2cc(OC(F)(F)F)cc(OC(F)(F)F)c2)n(-c2cnc(C(N)=O)cn2)n1 [Example I-033] |  |  | 100 | 100 | 100 |  |  | 
17 | C[C@H](NC(=O)c1cc(OC(F)(F)F)cc(S(C)(=O)=O)c1)c1ncnn1-c1cnc(C(=O)NC2CC2)cn1 [Example I-020] | 100 | 100 |  | 100 | 100 |  | 100 | 
18 | C[C@H](NC(=O)c1cc(OC(F)(F)F)cc(S(C)(=O)=O)c1)c1ncnn1-c1cnc(C(N)=O)cn1 [Example I-028] |  | 90 | 100 | 100 | 100 |  | 90 | 
